Consider one compound from patent US20070249701A1, “Cyclic amine CCR5 receptor antagonists” (TEIJIN LIMITED, priority 1999, published 2007).

The target of the assay is T1, human CCR5 (Homo sapiens, UniProt P51681).
T1 construct: expressed in transfected cells; host or cells: CHO cells
Kind of assay: Inhibition of binding of [125I]-labeled MIP-1β to membrane fraction of CHO cells expressing human CCR5. The note with it: at a concentration of 10 μM, [125I]-MIP-1β 0.1 to 0.5 nM, read-out: inhibitory activity against binding of human MIP-1β to the membrane fraction of the cells expressing CCR5, Inhibition(%). As for the experimental part: Measurement of Inhibitory Activity of a Compound Against Binding of [^125I]-Labeled MIP-1β to Membrane Fraction of the Cells Expressing CCR5
To a 96-well plate made of polystyrene, were respectively added 20 μL of a solution prepared by diluting each test compound with an assay buffer (50 mM HEPES, pH 7.4, 5 mM MgCl2, 1 mM CaCl2, 0.2% BSA), 25 μL of a solution obtained by diluting [^125I]-labeled MIP-1β (NEN Life Science Products, Inc.) with the assay buffer so as to provide 0.1 to 0.5 nM and 155 μL (including 4 μg of the membrane fraction) of a suspension prepared by suspending a membrane fraction of CHO cells expressing human CCR5 (the final volume of the reaction solution: 200 μL). […]
After completing the reaction, the reaction suspension was filtered through Filtermate (Packard Instrument Co.), and the filter washed with 250 μL of a precooled washing buffer (10 mM HEPES, pH 7.4, 0.5 M NaCl) nine times. […] The radioactivity was counted using TopCount NXT (Packard Instrument Co.).
The count when 0.2 μM of human MIP-1α instead of the test compound was added was subtracted as nonspecific binding, and the count when the test compound was not added was taken as 100%. Thereby, the inhibitory activity of the test compound against binding of the human MIP-1β to the membrane fraction of the cells expressing CCR5 was calculated. […]

T1 sequence (P51681 whole entry): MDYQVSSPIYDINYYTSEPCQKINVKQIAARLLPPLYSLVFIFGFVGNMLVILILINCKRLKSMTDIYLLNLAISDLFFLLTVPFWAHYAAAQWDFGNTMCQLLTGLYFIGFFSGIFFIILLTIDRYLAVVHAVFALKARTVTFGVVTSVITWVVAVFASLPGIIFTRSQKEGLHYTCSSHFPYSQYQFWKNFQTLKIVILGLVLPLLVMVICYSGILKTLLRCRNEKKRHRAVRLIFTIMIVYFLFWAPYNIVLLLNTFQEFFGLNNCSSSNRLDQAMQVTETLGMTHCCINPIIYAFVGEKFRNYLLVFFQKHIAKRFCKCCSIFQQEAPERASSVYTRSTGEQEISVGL

In general, inhibition refers to the change of the read-out against control, counted positive when it falls. For the compound `O=C(CNC(=O)c1cccc(SC(F)(F)F)c1)N[C@@H]1CCN(Cc2ccc(Cl)cc2)C1` [Compd. No. 1606, (R)-1-(4-chlorobenzyl)-3-[{N-(3-(trifluoromethylthio)benzoyl)glycyl}amino]pyrrolidine], the inhibition at 10 µM is 20 to 50%.
